# Experimental data: ChEMBL document CHEMBL1201862, “PubChem BioAssay data set” (2004)
# Calls of active or inactive are those of the source.
# Assays:
# Estrogen receptor beta = Estrogen receptor beta (Homo sapiens, UniProt Q92731); test: ERβ–SRC-3 coactivator interaction inhibitors, confirmation, orthogonal assay, biochemical, ELISA, streptavidin-HRP readout (AID 1060)
# Ephrin type-A receptor 4 = Ephrin type-A receptor 4 (Mus musculus, UniProt Q03137); test: inhibitors of EphA4 binding to KYL peptide, primary screen, biochemical, colorimetric, mouse EphA4 (AID 689); type: functional
# Ephrin type-A receptor 4, sequence (Q03137 whole entry): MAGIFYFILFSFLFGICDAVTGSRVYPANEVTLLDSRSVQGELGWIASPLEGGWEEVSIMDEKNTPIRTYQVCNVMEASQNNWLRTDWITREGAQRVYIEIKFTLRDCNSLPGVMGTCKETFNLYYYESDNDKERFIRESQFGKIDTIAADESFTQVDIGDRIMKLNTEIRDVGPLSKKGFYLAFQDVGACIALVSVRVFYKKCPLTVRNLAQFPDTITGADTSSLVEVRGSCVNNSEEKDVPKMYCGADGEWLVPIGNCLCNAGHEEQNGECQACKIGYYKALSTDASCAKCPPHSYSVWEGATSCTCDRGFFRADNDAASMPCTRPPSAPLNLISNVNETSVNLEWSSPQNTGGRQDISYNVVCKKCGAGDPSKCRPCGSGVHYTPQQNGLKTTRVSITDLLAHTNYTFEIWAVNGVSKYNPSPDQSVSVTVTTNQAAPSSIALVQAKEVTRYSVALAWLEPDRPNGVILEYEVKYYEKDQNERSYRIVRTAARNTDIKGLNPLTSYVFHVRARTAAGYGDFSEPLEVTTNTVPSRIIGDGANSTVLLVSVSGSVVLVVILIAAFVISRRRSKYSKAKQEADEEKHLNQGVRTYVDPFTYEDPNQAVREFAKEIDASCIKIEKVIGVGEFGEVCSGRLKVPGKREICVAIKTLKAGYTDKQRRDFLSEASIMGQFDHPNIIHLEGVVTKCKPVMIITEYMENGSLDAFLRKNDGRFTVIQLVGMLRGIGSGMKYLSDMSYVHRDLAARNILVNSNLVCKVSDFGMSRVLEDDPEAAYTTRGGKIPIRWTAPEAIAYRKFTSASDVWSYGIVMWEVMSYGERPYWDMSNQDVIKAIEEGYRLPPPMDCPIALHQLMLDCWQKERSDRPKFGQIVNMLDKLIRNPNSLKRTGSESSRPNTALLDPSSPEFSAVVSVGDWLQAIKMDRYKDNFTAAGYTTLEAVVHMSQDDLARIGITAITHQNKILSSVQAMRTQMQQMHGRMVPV
# [1] = molecular target: Induced myeloid leukemia cell differentiation protein Mcl-1 (Homo sapiens, UniProt Q07820); type: functional
# Induced myeloid leukemia cell differentiation protein Mcl-1, sequence (Q07820 whole entry): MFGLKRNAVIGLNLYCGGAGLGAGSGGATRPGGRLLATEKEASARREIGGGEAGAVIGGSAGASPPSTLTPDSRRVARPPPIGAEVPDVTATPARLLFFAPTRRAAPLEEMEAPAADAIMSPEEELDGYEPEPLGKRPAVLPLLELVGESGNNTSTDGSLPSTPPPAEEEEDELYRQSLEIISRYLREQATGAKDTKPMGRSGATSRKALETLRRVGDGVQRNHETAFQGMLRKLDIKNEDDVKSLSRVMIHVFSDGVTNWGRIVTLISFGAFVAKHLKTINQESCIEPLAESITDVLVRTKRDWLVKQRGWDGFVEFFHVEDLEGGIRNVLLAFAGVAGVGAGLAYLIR
# Vero = test: host cell cytotoxicity of antiviral hits, dose response, cytotoxicity control for West Nile virus antiviral project, secondary assay (AID 1650); type: functional; conditions: Chlorocebus sabaeus
# [2] = M. tuberculosis H37Rv growth inhibitors, H37Rv strain (AID 1626); type: functional
# Procathepsin L = Procathepsin L (Homo sapiens, UniProt P07711); test: cathepsin L inhibitors, dose response, counter-screen for M1/M17 aminopeptidase inhibitor project, biochemical, QFRET, 1536-well (AID 2214)
# Procathepsin L, sequence (P07711 whole entry): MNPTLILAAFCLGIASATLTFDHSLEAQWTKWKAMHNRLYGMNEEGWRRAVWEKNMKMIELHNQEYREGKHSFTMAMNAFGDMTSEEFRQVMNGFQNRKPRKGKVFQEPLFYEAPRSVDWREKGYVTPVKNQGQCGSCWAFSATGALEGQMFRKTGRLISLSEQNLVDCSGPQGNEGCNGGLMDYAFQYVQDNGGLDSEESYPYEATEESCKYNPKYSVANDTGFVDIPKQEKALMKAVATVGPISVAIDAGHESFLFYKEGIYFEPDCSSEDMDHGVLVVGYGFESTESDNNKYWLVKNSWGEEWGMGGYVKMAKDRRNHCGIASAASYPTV
# Aspartyl aminopeptidase = Aspartyl aminopeptidase (Plasmodium falciparum 3D7, UniProt Q8I2J3); test: Counterscreen for inhibitors of M1 and M17 aminopeptidases: QFRET-based biochemical high throughput dose response assay for inhibitors of the Plasmodium falciparum M18 Aspartyl Aminopeptidase (PFM18AAP). [Related PubChem assays: 1619 (Screening assay (M17LAP inhibitors).), 1445 (Screening assay (M1AAP inhibitors).)]
# Aspartyl aminopeptidase, sequence (Q8I2J3 whole entry): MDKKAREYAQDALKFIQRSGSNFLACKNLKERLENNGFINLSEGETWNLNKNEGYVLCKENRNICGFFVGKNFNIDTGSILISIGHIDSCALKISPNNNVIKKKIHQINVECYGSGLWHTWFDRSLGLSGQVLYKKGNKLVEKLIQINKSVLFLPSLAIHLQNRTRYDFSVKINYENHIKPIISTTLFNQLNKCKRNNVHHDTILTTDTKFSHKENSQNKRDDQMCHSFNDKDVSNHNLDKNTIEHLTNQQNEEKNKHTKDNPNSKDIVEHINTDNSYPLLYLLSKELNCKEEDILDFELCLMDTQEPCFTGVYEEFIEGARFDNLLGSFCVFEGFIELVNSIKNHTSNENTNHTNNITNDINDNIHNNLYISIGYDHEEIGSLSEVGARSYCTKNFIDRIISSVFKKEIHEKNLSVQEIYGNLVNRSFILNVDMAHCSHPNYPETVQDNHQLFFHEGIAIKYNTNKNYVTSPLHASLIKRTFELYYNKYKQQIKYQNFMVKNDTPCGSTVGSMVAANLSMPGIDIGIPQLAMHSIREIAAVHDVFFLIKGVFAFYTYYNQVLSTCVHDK
# Leucine aminopeptidase = molecular target: T1, Leucine aminopeptidase (Plasmodium falciparum 3D7, UniProt Q8IL11); test: P. falciparum M17LAP inhibitors, primary screen, biochemical, fluorogenic H-Leu-NHMec substrate, 1536-well (AID 1619); type: functional
# T1 sequence (Q8IL11 whole entry): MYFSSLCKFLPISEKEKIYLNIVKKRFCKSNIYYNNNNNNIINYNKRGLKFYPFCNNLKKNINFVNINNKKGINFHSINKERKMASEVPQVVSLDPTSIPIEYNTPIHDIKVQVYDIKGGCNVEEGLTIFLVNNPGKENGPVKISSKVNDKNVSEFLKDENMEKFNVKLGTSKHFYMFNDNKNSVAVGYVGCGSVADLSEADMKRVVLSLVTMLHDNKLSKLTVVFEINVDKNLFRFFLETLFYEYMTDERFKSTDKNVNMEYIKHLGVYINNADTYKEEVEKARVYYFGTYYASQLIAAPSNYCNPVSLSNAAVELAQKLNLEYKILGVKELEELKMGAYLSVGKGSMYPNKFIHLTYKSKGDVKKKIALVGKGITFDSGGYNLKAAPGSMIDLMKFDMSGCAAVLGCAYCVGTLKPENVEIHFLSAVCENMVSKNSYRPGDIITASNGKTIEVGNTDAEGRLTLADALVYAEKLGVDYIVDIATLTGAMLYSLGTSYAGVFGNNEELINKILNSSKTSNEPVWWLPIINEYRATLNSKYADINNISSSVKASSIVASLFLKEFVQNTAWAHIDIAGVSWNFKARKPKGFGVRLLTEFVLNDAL
# [3] = molecular target: Mothers against decapentaplegic homolog 3 (Homo sapiens, UniProt P84022); test: SMAD3 transcription factor inhibitors, dose response (AID 715); type: functional
# Mothers against decapentaplegic homolog 3, sequence (P84022 whole entry): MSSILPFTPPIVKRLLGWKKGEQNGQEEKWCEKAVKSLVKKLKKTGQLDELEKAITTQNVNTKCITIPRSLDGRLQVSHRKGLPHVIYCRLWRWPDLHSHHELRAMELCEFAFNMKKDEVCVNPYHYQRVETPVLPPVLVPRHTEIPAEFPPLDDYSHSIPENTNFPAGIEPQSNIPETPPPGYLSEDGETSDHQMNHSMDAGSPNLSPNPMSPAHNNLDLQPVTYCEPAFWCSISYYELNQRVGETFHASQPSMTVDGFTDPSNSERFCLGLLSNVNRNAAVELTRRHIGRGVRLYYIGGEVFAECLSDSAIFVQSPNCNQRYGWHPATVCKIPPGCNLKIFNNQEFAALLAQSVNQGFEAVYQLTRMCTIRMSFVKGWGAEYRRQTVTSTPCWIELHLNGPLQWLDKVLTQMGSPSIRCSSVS
# Cytochrome P450 2D6 = Cytochrome P450 2D6 (Homo sapiens, UniProt P10635);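 further: CYP2D6 member of a cytochrome P450 panel assay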
# Cytochrome P450 2D6, sequence (P10635 whole entry): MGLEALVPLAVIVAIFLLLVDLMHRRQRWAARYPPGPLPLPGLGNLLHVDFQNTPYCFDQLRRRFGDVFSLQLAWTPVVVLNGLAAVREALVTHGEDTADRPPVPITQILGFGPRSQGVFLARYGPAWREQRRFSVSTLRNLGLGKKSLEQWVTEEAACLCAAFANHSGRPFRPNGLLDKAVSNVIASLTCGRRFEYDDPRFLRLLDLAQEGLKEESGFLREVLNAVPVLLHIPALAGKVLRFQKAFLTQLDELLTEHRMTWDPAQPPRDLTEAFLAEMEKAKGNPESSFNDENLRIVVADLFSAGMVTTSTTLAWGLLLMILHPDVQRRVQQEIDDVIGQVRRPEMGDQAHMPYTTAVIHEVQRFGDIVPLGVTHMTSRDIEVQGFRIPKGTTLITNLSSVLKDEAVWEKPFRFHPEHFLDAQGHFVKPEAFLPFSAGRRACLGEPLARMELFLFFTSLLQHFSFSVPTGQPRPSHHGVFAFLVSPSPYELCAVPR
# Ion channel NompC = Ion channel NompC (Danio rerio, UniProt Q7T1G6); test: Dose response cell-based high-throughput screening assay for agonists of the transient receptor potential channel N1 (TRPN1). [Related pubchem assays (depositor defined):AID1424, AID1448]; type: functional
# INS1 = test: beta cell apoptosis inhibitors, cytokine rescue, dose response, luminescence, retest (AID 449756); type: functional, cell-based; conditions: Rattus norvegicus;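 further: cell death triggered by IL-1 beta plus TNF-alpha plus IFN-gamma mixture; protective hits raise ATP signal compared with cytokine alone wells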
# [4] = molecular target: Sphingosine 1-phosphate receptor 1 (Homo sapiens, UniProt P21453); type: functional;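 further: Tango beta-arrestin reporter U2OS cells stimulated with S1P near its EC80; inhibitor potency meaning antagonism of receptor activation by the natural agonist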
# Sphingosine 1-phosphate receptor 1, sequence (P21453 whole entry): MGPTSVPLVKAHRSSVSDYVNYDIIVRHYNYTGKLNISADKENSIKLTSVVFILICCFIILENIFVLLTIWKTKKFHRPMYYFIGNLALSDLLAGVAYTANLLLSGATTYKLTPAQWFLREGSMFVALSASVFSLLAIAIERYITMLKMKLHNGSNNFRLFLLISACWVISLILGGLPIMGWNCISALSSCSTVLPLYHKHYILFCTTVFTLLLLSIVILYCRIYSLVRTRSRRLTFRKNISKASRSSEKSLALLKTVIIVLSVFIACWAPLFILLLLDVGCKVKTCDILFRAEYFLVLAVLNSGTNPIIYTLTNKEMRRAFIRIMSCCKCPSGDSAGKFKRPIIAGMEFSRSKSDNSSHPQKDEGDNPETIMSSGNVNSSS
# [5] = cytotoxicity in HEK-293T cells, dose response, cytotoxicity control for TCR NF-kB inhibitor project, luminescence, T-cell screen hits (AID 489026); type: functional, cell-based;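 further: cells exposed to compound about 14 hours before the viability readout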
# Mucolipin-3 = molecular target: T2, Mucolipin-3 (Homo sapiens, UniProt Q8TDD5); test: Fluorescence counterscreen assay for […] agonists: dose response cell-based high-throughput screening assay to identify agonists of the transient receptor potential channel ML3 (TRPML3). [Related pubchem assays: 1424, 1448 ]; type: functional
# T2 sequence (Q8TDD5 whole entry): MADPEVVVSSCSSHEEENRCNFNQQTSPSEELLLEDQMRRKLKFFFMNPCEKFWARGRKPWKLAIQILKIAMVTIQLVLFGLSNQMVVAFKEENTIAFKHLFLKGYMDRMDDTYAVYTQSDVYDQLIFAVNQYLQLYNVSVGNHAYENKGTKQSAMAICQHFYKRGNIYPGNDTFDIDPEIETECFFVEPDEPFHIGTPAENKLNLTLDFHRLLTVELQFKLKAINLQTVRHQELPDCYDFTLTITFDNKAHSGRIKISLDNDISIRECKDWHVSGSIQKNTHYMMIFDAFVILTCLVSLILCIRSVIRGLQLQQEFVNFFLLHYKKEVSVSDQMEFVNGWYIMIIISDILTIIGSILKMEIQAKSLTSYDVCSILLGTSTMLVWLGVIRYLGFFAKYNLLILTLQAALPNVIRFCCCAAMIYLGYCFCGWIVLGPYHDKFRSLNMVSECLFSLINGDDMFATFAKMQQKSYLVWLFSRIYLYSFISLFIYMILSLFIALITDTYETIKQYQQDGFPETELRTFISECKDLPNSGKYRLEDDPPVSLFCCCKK
# [6] = cytotoxicity toward DRD oncogenic fibroblasts, dose response, cell-based, non-viral oncogenic, luminescence (AID 1934); type: functional; conditions: Homo sapiens
# BJ [7] = test: cells; type: functional, cell-based; conditions: Homo sapiens
# [8] = molecular target: T3, Sphingosine 1-phosphate receptor 4 (Homo sapiens, UniProt O95977); test: Fluorescence dose response cell-based high throughput screening assay for antagonists of the Sphingosine 1-Phosphate Receptor 4 (S1P4). [Related pubchem assays: 1524 (Confirmation in triplicates.), 1510 (Primary screen.)]; type: functional
# T3 sequence (O95977 whole entry): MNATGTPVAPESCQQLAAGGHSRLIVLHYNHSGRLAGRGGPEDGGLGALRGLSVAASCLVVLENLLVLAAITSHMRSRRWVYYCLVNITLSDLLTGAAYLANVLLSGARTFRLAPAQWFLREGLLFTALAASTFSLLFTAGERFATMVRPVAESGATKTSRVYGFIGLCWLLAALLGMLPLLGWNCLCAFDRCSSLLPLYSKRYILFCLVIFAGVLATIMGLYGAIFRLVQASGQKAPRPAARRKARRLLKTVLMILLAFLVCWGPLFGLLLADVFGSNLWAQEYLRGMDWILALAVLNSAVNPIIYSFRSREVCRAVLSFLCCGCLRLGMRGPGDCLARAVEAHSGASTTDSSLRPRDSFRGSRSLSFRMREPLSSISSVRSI
# BJ [9] = test: cytotoxicity toward BJ-TERT-LT-ST fibroblasts, dose response, cell-based, RAS-independent, luminescence (AID 1935); type: functional; conditions: Homo sapiens;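 further: BJ fibroblasts immortalized with TERT plus LT and ST oncogenes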
# [10] = molecular target: T3, Sphingosine 1-phosphate receptor 4; test: Late stage fluorescence dose response cell-based screening assay for antagonists of the Sphingosine 1-Phosphate Receptor 4 (S1P4). [Related pubchem assays: 1524 (Confirmation screen (S1P4 antagonists).), 1510 (Primary screen (S1P4 antagonists).), 1853 (Summary AID (S1P4 antagonists).), 1692 (Dose response screen (S1P4 antagonists).)]; type: functional
# BJ [11] = test: cytotoxicity toward Ras-transformed BJeLR fibroblasts, dose response, cell-based, alamar blue fluorescence, cherrypicked samples (AID 2631); type: functional; conditions: Homo sapiens;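 further: confirmatory dose-response assay in RAS-dependent BJ fibroblasts engineered with TERT, LT and ST, with cytotoxicity read by fluorescence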
# BJ [12] = test: cytotoxicity toward BJ-TERT fibroblasts, dose response, cell-based, RAS-independent, luminescence (AID 1933); type: functional; conditions: Homo sapiens
# [13] = Luminescence Cell-Based Dose Confirmation HTS to Identify Inhibitors of Polyadenylation.; type: functional
# Danio rerio = test: In Vivo Angiogenesis Dose-Response Confirmation. [Related pubchem assays: 732 (Assay preceding this confirmatory assay.)]; type: functional, organism-based
# [14] = HEK293T cell cytotoxicity, dose response, cytotoxicity control for HIV Vif inhibitor project, cherry-picks (AID 652208); type: functional, cell-based
# Estrogen receptor = molecular target: T4, Estrogen receptor (Homo sapiens, UniProt P03372);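 further: potency for inhibiting coactivator peptide recruitment to the receptor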
# T4 sequence (P03372 whole entry): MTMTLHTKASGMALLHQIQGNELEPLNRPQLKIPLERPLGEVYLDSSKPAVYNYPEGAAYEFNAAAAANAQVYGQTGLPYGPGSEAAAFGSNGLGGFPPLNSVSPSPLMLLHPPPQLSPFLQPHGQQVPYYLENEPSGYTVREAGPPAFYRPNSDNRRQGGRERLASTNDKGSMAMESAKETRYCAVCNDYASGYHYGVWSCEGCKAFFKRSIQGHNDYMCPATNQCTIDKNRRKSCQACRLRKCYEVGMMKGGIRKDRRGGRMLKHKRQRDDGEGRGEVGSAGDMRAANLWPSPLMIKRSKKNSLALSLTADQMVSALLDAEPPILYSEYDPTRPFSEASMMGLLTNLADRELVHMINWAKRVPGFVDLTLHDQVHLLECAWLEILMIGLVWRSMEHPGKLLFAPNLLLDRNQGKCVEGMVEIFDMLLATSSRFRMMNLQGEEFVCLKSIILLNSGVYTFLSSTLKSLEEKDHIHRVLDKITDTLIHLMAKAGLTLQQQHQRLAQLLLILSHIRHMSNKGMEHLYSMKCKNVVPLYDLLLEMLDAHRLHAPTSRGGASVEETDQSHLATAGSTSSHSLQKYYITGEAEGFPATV
# [15] = molecular target: T5, Endoribonuclease toxin MazF (Escherichia coli K-12, UniProt P0AE70); test: fluorescent RNA oligo signal without MazF, dose response, counter-screen for MazEF activator project, biochemical, fluorescence, single-stranded RNase substrate (AID 588502); type: functional
# T5 sequence (P0AE70 whole entry): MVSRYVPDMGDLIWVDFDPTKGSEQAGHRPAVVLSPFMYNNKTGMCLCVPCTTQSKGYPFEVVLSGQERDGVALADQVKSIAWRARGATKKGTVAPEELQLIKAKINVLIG
# [16] = molecular target: T5, Endoribonuclease toxin MazF; test: MazF toxin RNase activators, dose response, biochemical, fluorescence, single-stranded RNA substrate, uHTS hits (AID 588481); type: functional
# [17] = HEp-2 cell cytotoxicity, dose response, cytotoxicity control for RSV inhibitor project, HTS (AID 2410); type: functional; conditions: human respiratory syncytial virus
# Genome polyprotein = Genome polyprotein (dengue virus type 2, UniProt P29990); test: Dengue-2 NS5 methyltransferase inhibitors, primary screen, biochemical, confirmation dose response (AID 588689); type: functional
# Genome polyprotein, sequence (P29990 2492-3391 limits assumed): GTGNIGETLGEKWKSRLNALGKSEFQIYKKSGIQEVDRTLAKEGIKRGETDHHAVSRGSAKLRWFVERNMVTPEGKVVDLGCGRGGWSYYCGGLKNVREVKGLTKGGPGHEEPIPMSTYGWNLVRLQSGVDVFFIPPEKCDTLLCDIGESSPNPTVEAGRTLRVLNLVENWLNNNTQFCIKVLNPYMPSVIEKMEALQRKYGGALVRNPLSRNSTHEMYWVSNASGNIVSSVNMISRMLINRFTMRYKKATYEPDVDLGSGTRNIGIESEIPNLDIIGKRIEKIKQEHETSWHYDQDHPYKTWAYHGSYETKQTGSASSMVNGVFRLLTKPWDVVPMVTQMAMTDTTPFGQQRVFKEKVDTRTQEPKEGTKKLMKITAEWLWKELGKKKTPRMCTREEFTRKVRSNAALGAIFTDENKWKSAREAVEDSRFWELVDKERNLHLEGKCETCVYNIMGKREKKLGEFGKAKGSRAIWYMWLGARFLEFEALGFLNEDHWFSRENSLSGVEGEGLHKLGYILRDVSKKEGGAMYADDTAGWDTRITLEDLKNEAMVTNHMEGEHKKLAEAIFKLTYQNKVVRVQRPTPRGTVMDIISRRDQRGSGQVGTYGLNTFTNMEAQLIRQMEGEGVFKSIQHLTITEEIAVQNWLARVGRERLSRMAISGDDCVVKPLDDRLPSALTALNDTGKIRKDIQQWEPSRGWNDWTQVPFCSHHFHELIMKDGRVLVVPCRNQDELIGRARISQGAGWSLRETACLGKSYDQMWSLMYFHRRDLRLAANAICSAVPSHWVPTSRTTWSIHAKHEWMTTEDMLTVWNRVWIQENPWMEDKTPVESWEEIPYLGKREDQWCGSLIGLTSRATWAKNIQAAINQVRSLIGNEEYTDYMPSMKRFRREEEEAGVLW
# [18] = molecular target: T6, Mannose-6-phosphate isomerase (Homo sapiens, UniProt P34949); test: human PMI inhibitors, high substrate, primary screen, biochemical, fluorescence intensity, high mannose 6-phosphate (AID 1220)
# T6 sequence (P34949 whole entry): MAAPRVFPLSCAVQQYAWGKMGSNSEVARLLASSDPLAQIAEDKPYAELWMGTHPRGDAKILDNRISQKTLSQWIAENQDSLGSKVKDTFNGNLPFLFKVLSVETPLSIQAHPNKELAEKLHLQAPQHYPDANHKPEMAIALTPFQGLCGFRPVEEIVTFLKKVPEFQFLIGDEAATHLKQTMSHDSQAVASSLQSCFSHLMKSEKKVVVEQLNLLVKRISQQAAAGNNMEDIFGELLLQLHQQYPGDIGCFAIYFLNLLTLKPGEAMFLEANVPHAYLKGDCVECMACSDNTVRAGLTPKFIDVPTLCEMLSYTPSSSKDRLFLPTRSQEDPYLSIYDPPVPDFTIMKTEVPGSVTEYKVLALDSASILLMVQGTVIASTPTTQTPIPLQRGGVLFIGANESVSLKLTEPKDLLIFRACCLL
# [19] = molecular target: T6, Mannose-6-phosphate isomerase; test: inhibitors of human PMI, primary screen, biochemical, fluorescence intensity, coupled assay (AID 1209)
# Estrogen receptor beta, sequence (Q92731 whole entry): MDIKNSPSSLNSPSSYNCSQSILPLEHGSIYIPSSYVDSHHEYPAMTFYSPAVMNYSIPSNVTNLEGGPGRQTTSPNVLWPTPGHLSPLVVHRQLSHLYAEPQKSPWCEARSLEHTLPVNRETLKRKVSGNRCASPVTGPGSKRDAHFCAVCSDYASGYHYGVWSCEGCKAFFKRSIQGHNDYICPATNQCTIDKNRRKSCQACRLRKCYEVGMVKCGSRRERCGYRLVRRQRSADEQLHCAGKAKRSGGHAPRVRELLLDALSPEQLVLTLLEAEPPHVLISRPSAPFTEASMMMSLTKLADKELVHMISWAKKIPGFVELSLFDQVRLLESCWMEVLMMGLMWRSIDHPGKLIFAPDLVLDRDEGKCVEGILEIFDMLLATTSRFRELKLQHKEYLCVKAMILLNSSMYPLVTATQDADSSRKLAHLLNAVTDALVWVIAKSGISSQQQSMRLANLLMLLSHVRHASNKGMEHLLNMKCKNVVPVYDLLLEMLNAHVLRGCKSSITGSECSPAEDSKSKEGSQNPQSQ
structure (smiles),measurement,setting,value
Cc1nc(C)c(C(=O)Nc2nc3c(C)cccc3s2)o1,IC50,Estrogen receptor beta,0.588 µM (not active)
same,IC50,Ephrin type-A receptor 4,11.3 µM (active)
same,IC50,[1],3.36 µM (active)
CC(C)n1nc(C(=O)Nc2cccc(S(=O)(=O)NCc3ccco3)c2)c2ccccc2c1=O,CC50,Vero,3.81 µM (active)
Cn1nc(C(F)(F)F)c(-c2ccc(Br)cc2)c1NC(=O)c1cccnc1,IC50,[2],> 100 µM (active)
CCOc1ccc(NC(=O)Nc2ccc3nccnc3c2)cc1,IC50,Procathepsin L,> 59.6 µM (not active)
same,IC50,Aspartyl aminopeptidase,> 73.5 µM (not active)
same,IC50,Leucine aminopeptidase,5.45 µM (active)
CCCc1cc(=O)[nH]c(N=C(NC(=O)C(C)N2C(=O)c3ccccc3C2=O)Nc2ccccc2)n1 (configuration not stated),IC50,[3],8.78 µM (active)
C=C1C(=O)C=C2CN(C(=O)c3ccccc3)[C@@](Cc3ccc(F)cc3)(C(=O)OC)[C@@H]12,AC50,Cytochrome P450 2D6,39.8 µM (inconclusive)
same,EC50,Ion channel NompC,> 1.11 µM (inactive)
same,AC50,INS1,1.58 µM (active)
same,IC50,[4],12 µM (not active)
same,IC50,[5],> 80 µM (inactive)
same,EC50,Mucolipin-3,1.12 µM (active)
same,EC50,[6],0.662 µM (active)
same,EC50,BJ [7],8.08 µM (inconclusive)
same,IC50,[8],0.473 µM (active)
same,EC50,BJ [9],0.554 µM (inconclusive)
same,IC50,[10],3.7 µM (not active)
same,EC50,BJ [11],< 0.104 µM (active)
same,EC50,BJ [12],0.333 µM (active)
COc1ccc(-c2cccc(NC(=O)COc3ccc(Cl)cc3)c2)nn1,EC50,[13],> 120 µM (not active)
Cc1cccc2c1NC(=O)/C2=C1\Nc2ccccc2C1=O,IC50,Danio rerio,1.23 µM (active)
O=C(Nc1ccc2oc(-c3ccc4ccccc4c3)nc2c1)c1cccs1,AC50,[14],31 µM (active)
same,IC50,Estrogen receptor,27.7 µM (active)
same,EC50,[15],> 99 µM (inactive)
same,EC50,[16],> 99 µM (inactive)
same,CC50,[17],18.6 µM (active)
Cc1cc(C(=O)N/N=C/c2ccc(O)c(O)c2O)c(C)n1-c1ccccc1,IC50,Genome polyprotein,41.9 µM (active)
same,IC50,[18],> 50 µM (not active)
same,IC50,[19],> 50 µM (not active)
